Test results from US9834541B2, “2-aminopyridine compounds” (Merck Patent GmbH, priority 2012, dated 2017).

Experiments:
Wnt pathway = assay: Cellular assay for Wnt pathway activity, LS174T-shl-fLuc clone 5 (LS174T-L5) luciferase reporter assay; type: cell-based; details: Homo sapiens; LS174T TCF luciferase reporter cells, 24 hours incubation
Description: 1. Cellular Assay for Wnt Pathway Activity LS174T-shl-fLuc Clone 5 (LS174T-L5) Reporter Assay Principle:
This assay is based on an in-vitro luciferase activity readout. The human colon cancer cell line, LS174T was transduced with a lentivirus encoding a short half-life luciferase (with a destabilised PEST sequence construct; construct F1756): 16×TCF/LEF transcription sites—short half life firefly luciferase on a basal pTA promoter—puromycin resistance gene on an EF-1-α promoter). This construct was made using the lentiviral base vector: pCDF1-MCS2-EF1-Puro from System Biosciences (cat. # CD110B-1). The luciferase has a T1/2 of about 60 minutes.
Stable luciferase-expressing clones were selected, using 1 μg/mL puromycin selection and the clones were bulked up.
Compounds that inhibit the Wnt pathway are predicted to inhibit the induction of luciferase transcription by TCF; this will result in reduced luciferase protein production and luciferase signal readout.
Compounds were tested for their Wnt pathway inhibitory activities using the described firefly luciferase reporter cell based assay. An LS174T luciferase reporter cell line was used which contained a T-Cell Factor (TCF) dependent gene promoter firefly luciferase construct.
Compounds, in concentrations from 30 μM to 1 nM, were incubated for 24 hours on the cells. Luciferase activities were determined using the Steady Glo Luciferase Assay System (Promega) and the TOPCOUNT microplate reader (Perkin Elmer). For analysis, the obtained data were normalized against the untreated vehicle control and fitted for determination of the IC50 values using the Excel Fit application of the Excel Software (Microsoft).

[1] = CLint (intrinsic clearance) assay, liver microsomal incubation; type: in vitro ADME, human; details: liver microsomes, pH 7.4; human hepatic microsomes, 0.5 mg/mL protein, class symbols
Method: Also shown is the human hepatic microsomal intrinsic clearance (CLint), whereby the following classification is used:
2. CLint (Intrinsic Clearance) Assay
A Tecan Genesis workstation (RWS ASY 150/8) was used to perform the microsomal incubations. Analysis was carried out using a Waters ACQUITY UPLC system coupled to an ABSciex API3000 mass spectrometer. Data analysis was performed using Assay Explorer (Symyx).
Column: Acquity UPLC BEH C18, 2.1×50 mm, 1.7 um (Waters)
Mobile phases: • A=0.1% formic acid in water • B=acetonitrile
Column temperature: 50° C.
0.1 M potassium phosphate buffer pH 7.4 containing 1 mM MgCl2
15 mM NADPH in phosphate buffer
5.0 mg protein/mL liver microsomes in phosphate buffer
Each experiment consists of 12 test and 2 reference compounds. The reference compounds are incubated as a cocktail.
Dilution of test compounds was done in 2 steps from a 10 mM DMSO stock solution. First 4 μL stock solution was added to 196 μL of 20% DMSO in potassium phosphate buffer pH 7.4. In a second step 10 μL of the first dilution were added to 1890 μL potassium phosphate buffer and 100 μL internal standard solution to a final concentration of […].
100 μL of the final compound dilution were aliquoted into a 96 deep well plate. 12.5 μL liver microsomes were added to each well (0.5 mg/mL final protein concentration) and the samples preincubated for 5 min at 37° C. and 800 rpm agitation.
After the preincubation, 250 μL cold acetonitrile were added to the 0 min samples to prevent a reaction. Following this, 12.5 μL NADPH solution were added to all wells to start the incubation, with the exception of the 0 min and 30 min controls without cofactor, where the NADPH was substituted for phosphate buffer.
The incubations were stopped after 5, 10, 20 and 30 min by adding 250 μL cold acetonitrile to the individual wells.
The quenched samples were then centrifuged at 4000 g for 1 h at 4° C. 100 μL of the supernatant were transferred into 96 well plates for analysis.
The metabolic stability of each compound was determined by measurement of the change in LC-MS/MS peak area over time. Assay Explorer software was used to automatically calculate the slope k of the decline. The intrinsic clearance (CLint) of each compound was then calculated according to the formula: CLint(μL/min/mg protein)=k1000/protein concentration.

Structure (SMILES)	IC50 (Wnt pathway) [µM]	microsomal CLint at 0.8 μM [1] [µL/min/mg]
Nc1ncc(-c2ccc3oc(=O)[nH]c3c2)c(N2CCC3(CC2)CNC(=O)O3)c1Cl [Compound 9, 8-[2-Amino-3-chloro-5-(2-oxo-2,3-dihydro-benzooxazol-5-yl)-pyridin-4-yl]-1-oxa-3,8-diaza-spiro[4.5] decan-2-one]	0.098	10 to 50
Cn1ncc2cc(-c3cnc(N)c(F)c3N3CCC4(CCNC4=O)CC3)ccc21 [Compound 64, 8-[2-Amino-3-fluoro-5-(1-methyl-1H-indazol-5-yl)-pyridin-4-yl]-2,8-diaza-spiro[4.5] decan-1-one]	0.644	10 to 50
CCn1cc(-c2ccc(-c3cnc(N)c(Cl)c3N3CCC4(CCNC4=O)CC3)cc2)cn1 [Compound 70, 8-{2-Amino-3-chloro-5-[4-(1-ethyl-1H-pyrazol-4-yl)-phenyl]-pyridin-4-yl}-2,8-diaza-spiro[4.5] decan-1-one]	0.023	≥ 150
CC(C)n1cc(-c2ccc(-c3cnc(N)c(Cl)c3N3CCC4(CC3)CNC(=O)O4)cc2)cn1 [Compound 55, 8-{2-Amino-3-chloro-5-[4-(1-isopropyl-1H-pyrazol-4-yl)-phenyl]-pyridin-4-yl}-1-oxa-3,8-diaza-spiro[4.5] decan-2-one]	0.17	10 to 50
Nc1ncc(-c2ccc3c(c2)NC(=O)C3)c(N2CCC3(CCNC3=O)CC2)c1Cl [Compound 7, 6-(6-Amino-5-chloro-4-(1-oxo-2,8-diazaspiro[4.5]decan-8-yl)pyridin-3-yl)indolin-2-one]	0.063	10 to 50
Cn1cc(-c2ccc(-c3cnc(N)c(Cl)c3N3CCC4(CC3)NCCNC4=O)cc2)cn1 [Compound 40, 9-(2-Amino-3-chloro-5-(4-(1-methyl-1H-pyrazol-4-yl)phenyl)pyridin-4-yl)-1,4,9-triazaspiro[5.5]undecan-5-one]	0.1	10 to 50
CN1c2ccc(-c3cnc(N)c(C(F)(F)F)c3N3CCC4(CCNC4=O)CC3)cc2CS1(=O)=O [Compound 53, 8-[2-Amino-5-(1-methyl-2,2-dioxo-2,3-dihydro-1H-2I6-benzo[c]isothiazol-5-yl)-3-trifluoro-methyl-pyridin-4-yl]-2,8-diaza-spiro[4.5] decan-1-one]	0.00829	50 to 100
Cn1cc(-c2ccc(-c3cnc(N)c(F)c3N3CCC4(CC3)CNC(=O)O4)cc2)cn1 [Compound 63, 8-{2-Amino-3-fluoro-5-[4-(1-methyl-1H-pyrazol-4-yl)-phenyl]-pyridin-4-yl}-1-oxa-3,8-diaza-spiro[4.5] decan-2-one]	0.237	10 to 50
Nc1ncc(-c2ccc(-c3cnn(CCO)c3)cc2)c(N2CCC3(CC2)NC(=O)NC3=O)c1Cl [Compound 6, 8-(2-Amino-3-chloro-5-{4-[1-(2-hydroxy-ethyl)-1H-pyrazol-4-yl]-phenyl}-pyridin-4-yl)-1,3,8-triaza-spiro[4.5] decane-2,4-dione]	0.39	10 to 50
Cn1cc(-c2ccc(-c3cnc(N)c(Cl)c3N3CCC4(CCNC4=O)CC3)cc2)cn1 [Compound 16, 8-(2-Amino-3-chloro-5-(4-(1-methyl-1H-pyrazol-4-yl)phenyl)pyridin-4-yl)-2,8-diazaspiro[4.5]decan-1-one]	0.025	100 to 150
CS(=O)(=O)CCn1cc(-c2ccc(-c3cnc(N)c(Cl)c3N3CCC4(CCNC4=O)CC3)cc2)cn1 [Compound 59, 8-(2-Amino-3-chloro-5-{4-[1-(2-methanesulfonyl-ethyl)-1H-pyrazol-4-yl]-phenyl}-pyridin-4-yl)-2,8-diaza-spiro[4.5] decan-1-one]	0.045	10 to 50
Nc1ncc(-c2ccc3c(N)n[nH]c3c2)c(N2CCC3(CCNC3=O)CC2)c1C(F)(F)F [Compound 44, 8-[2-Amino-5-(3-amino-1H-indazol-6-yl)-3-trifluoro-methyl-pyridin-4-yl]-2,8-diaza-spiro[4.5] decan-1-one]	0.27	10 to 50
Cn1ncc2cc(-c3cnc(N)c(Cl)c3N3CCC4(CC3)NC(=O)NC4=O)ccc21 [Compound 8, 8-[2-Amino-3-chloro-5-(1-methyl-1H-indazol-5-yl)-pyridin-4-yl]-1,3,8-triaza-spiro[4.5] decane-2,4-dione]	0.029	< 10
Cn1ncc2cc(-c3cnc(N)c(C(F)(F)F)c3N3CCC4(CCNC4=O)CC3)ccc21 [Compound 39, 8-(2-Amino-5-(1-methyl-1H-indazol-5-yl)-3-(trifluoromethyl)pyridin-4-yl)-2,8-diazaspiro[4.5]decan-1-one]	0.035	50 to 100
Nc1ncc(-c2ccc3oc(=O)[nH]c3c2)c(N2CCC3(CCNC3=O)CC2)c1Cl [Compound 32, 5-[6-Amino-5-chloro-4-(1-oxo-2,8-diaza-spiro[4.5]dec-8-yl)-pyridin-3-yl]-3H-benzooxazol-2-one]	0.017	10 to 50
Cn1cc(-c2ccc(-c3cnc(N)c(C(F)(F)F)c3N3CCC4(CC3)CNC(=O)O4)cc2)cn1 [Compound 41, 8-{2-Amino-5-[4-(1-methyl-1H-pyrazol-4-yl)-phenyl]-3-trifluoromethyl-pyridin-4-yl}-1-oxa-3,8-diaza-spiro[4.5] decan-2-one]	0.075	< 10
CN1c2ccc(-c3cnc(N)c(Cl)c3N3CC[C@@H](C#N)[C@H](O)C3)cc2CS1(=O)=O [Compound 66, (3S,4S)-2′-Amino-3′-chloro-3-hydroxy-5′-(1-methyl-2,2-dioxo-2,3-dihydro-1H-2I6-benzo[c]isothiazol-5-yl)-3,4,5,6-tetrahydro-2H-[1,4′] bipyridinyl-4-carbonitrile]	0.403	10 to 50
Nc1ncc(-c2ccc3c(c2)CCC(=O)N3)c(N2CCC3(CC2)CC(=O)NC3=O)c1Cl [Compound 13, 8-[2-Amino-3-chloro-5-(2-oxo-1,2,3,4-tetrahydro-quinolin-6-yl)-pyridin-4-yl]-2,8-diaza-spiro[4.5] decane-1,3-dione]	0.014	< 10
Cn1cc(-c2ccc(-c3cnc(N)c(Cl)c3N3CCC4(CC3)NC(=O)NC4=O)cc2)cn1 [Compound 2, 8-{2-Amino-3-chloro-5-[4-(1-methyl-1H-pyrazol-4-yl)-phenyl]-pyridin-4-yl}-1,3,8-triaza-spiro[4.5] decane-2,4-dione]	0.031	< 10
Cn1ncc2cc(-c3cnc(N)c(Cl)c3N3CCC4(CC3)C(=O)Nc3ccccc34)ccc21 [Compound 31, 1′-(2-Amino-3-chloro-5-(1-methyl-1H-indazol-5-yl)pyridin-4-yl)spiro[indoline-3,4′-piperidin]-2-one]	0.004	50 to 100
CCn1ncc2cc(-c3cnc(N)c(Cl)c3N3CCC4(CCNC4=O)CC3)ccc21 [Compound 72, 8-[2-Amino-3-chloro-5-(1-ethyl-1H-indazol-5-yl)-pyridin-4-yl]-2,8-diaza-spiro[4.5] decan-1-one]	0.155	100 to 150
Nc1ncc(-c2ccc3cc[nH]c3c2)c(N2CCC3(CCNC3=O)CC2)c1Cl [Compound 24, 8-[2-Amino-3-chloro-5-(1H-indol-6-yl)-pyridin-4-yl]-2,8-diaza-spiro[4.5] decan-1-one]	0.018	100 to 150
